For one data set, the target named is T1, human H3 receptor (Homo sapiens, UniProt Q9Y5N1).
T1 construct: expressed in transfected cells
Put plainly: Human H3 radioligand binding ([3H]-N-alpha-methylhistamine, CHO cell membranes). As to conditions: Human H3 binding constant, class symbols; read-out: hH3 Ki. As for the experimental part:
(§1) Methods: CHO cells stably expressing the human H3 receptor (GenBank: NM_007232) were harvested and cell pellets were frozen (−80° C.). Cell pellets were resuspended in 5 mM Tris-HCl, pH 7.5 with 5 nM EDTA and a cocktail of protease inhibitors (Complete Protease Inhibitor Tablets, Roche Diagnostics). Cells were disrupted using a polytron cell homogenizer and the suspension was centrifuged at 1000×g for 10 minutes at 4° C. The pellet was discarded and the supernatant centrifuged at 40,000×g for 30 min at 4° C. This membrane pellet was washed in membrane buffer containing 50 mM Tris-HCl, pH 7.5 with 0.6 mM EDTA, 5 mM MgCl2 and protease inhibitors, recentrifuged as above and the final pellet resuspended in membrane buffer plus 250 mM sucrose and frozen at −80° C.
(§2) Radioligand Binding. Membranes were resuspended in 50 mM Tris HCl (pH 7.4), 5 mM MgCl2, 0.1% BSA. The membrane suspensions (10 μg protein per well) were incubated in a 96 well microtiter plate with [^3H]-N-alpha-methylhistamine (approximately 1 nM final concentration), test compounds at various concentrations (0.01 nM-30 μM) and scintillation proximity beads (Perkin Elmer, FlashBlueGPCR Scintillating Beads) in a final volume of 80 μl for 4 hours at room temperature, protected from light. Non-specific binding was determined in the presence of 10 μM clobenpropit. Radioligand bound to receptor, and therefore in proximity to the scintillation beads, was measured using a MicroBeta scintillation counter.

For data set [1], the target named is T2, rat histamine H3 receptor (Rattus norvegicus, UniProt Q9QYN8).
T2 construct: encoding the entire 445-amino-acid rat histamine H3 receptor; expressed in transfected cells
T2 sequence (Q9QYN8 whole entry): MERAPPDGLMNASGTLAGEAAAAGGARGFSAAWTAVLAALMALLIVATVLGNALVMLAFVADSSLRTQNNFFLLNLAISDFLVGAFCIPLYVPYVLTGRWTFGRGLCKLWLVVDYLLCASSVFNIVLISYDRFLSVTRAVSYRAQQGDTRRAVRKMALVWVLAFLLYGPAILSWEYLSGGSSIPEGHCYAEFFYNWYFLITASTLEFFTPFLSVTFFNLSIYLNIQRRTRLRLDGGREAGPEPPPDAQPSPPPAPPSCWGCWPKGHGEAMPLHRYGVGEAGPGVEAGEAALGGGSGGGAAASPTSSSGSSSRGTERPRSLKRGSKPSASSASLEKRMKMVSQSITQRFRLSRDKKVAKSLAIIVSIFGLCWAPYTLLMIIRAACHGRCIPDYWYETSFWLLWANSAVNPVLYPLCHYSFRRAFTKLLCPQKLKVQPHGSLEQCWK
Description: Rat H3 radioligand binding ([3H]-N-alpha-methylhistamine, CHO-A3 cell membranes). As to conditions: Rat H3 binding constant, class symbols; read-out: rH3 Ki.
Text: as §1, with “Cell line development and membrane preparation. The rat” for “Methods: CHO cells stably expressing the human”, “cDNA was PCR amplified from reverse-transcribed RNA pooled from rat thalamus, hypothalamus, striatum and prefrontal cortex with a sequence corresponding to by #338-1672 of Genbank file #NM_053506, encoding the entire 445-amino-acid rat histamine H3 receptor. This was engineered into the pIRES-neo3 mammalian expression vector, which was stably transfected into the CHO-A3 cell line (Euroscreen, Belgium), followed by clonal selection by limiting dilution. Cells” for “(GenBank: NM_007232)”
as §2

Structures can show the parent of a compound that is named as a salt.

25 compounds from patent US20110098269A1, “Substituted Pyridazinone Derivatives as Histamine-3 (H3) Receptor Ligands” (Cephalon, Inc., priority 2008, published 2011) can be followed below.

T1 sequence (Q9Y5N1 whole entry): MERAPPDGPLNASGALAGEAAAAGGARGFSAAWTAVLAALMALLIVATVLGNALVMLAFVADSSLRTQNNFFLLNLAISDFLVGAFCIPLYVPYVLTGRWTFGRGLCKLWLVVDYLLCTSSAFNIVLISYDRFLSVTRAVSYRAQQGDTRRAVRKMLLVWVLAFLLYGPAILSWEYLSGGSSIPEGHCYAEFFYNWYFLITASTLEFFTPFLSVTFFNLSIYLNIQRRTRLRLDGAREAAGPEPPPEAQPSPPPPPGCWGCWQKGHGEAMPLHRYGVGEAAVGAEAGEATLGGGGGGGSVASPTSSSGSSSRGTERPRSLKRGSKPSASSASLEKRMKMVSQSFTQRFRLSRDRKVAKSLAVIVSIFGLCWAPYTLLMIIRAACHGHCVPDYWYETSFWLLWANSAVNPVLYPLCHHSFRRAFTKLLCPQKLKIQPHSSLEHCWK

The Ki is the dissociation constant of the complex between target and ligand, obtained from inhibition or displacement. By melting point is commonly meant the temperature, or range, at which the solid turns liquid. For the compound `CC(C)n1nc(-c2ccc3c(c2)CCN(C2CCC2)CC3)ccc1=O` [Example 7, 6-(3-Cyclobutyl-2,3,4,5-tetrahydro-1H-benzo[d]azepin-7-yl)-2-isopropyl-2H-pyridazin-3-one], the melting point lay within 199 to 200 °C. Moreover, on human H3 receptor, the Ki is below 100 nM. The Ki in data set [1] lay within 100 to 1000 nM.

As to `O=c1ccc(-c2ccc3c(c2)CCN(C2CCC2)CC3)n[nH]1` [Example 2, 6-(3-Cyclobutyl-2,3,4,5-tetrahydro-1H-benzo[d]azepin-7-yl)-2H-pyridazin-3-one], the melting point fell in the range of 250 to 251 °C. In addition, the Ki at human H3 receptor was below 100 nM. For the same compound, the Ki in data set [1] is below 100 nM.

With `Cn1nc(-c2ccc3c(c2)CCNCC3)ccc1=O` [Example 20, 2-Methyl-6-(2,3,4,5-tetrahydro-1H-benzo[d]azepin-7-yl)-2H-pyridazin-3-one], the melting point is 183 to 185 °C. Moreover, the Ki on human H3 receptor was above 1000 nM. In addition, in data set [1], the inhibitory constant (Ki) is above 1000 nM.

As to `Cn1nc(-c2ccc3c(c2)CCN(C2CCCC2)CC3)ccc1=O` (as salt: HCl) [Example 23, 6-(3-Cyclopentyl-2,3,4,5-tetrahydro-1H-benzo[d]azepin-7-yl)-2-methyl-2H-pyridazin-3-one. HCl], the melting point fell in the range of 239 to 240 °C.

Consider `O=C1CCC(c2ccc3c(c2)CCN(C2CCC2)CC3)=NN1CCO` [Example 17, 6-(3-Cyclobutyl-2,3,4,5-tetrahydro-1H-benzo[d]azepin-7-yl)-2-(2-hydroxy-ethyl)-4,5-dihydro-2H-pyridazin-3-one], for which the melting point fell in the range of 141 to 142 °C. For the same compound, the Ki on human H3 receptor is below 100 nM. In addition, the Ki in data set [1] is below 100 nM.

With `CC(C)N1CCc2ccc(-c3ccc(=O)n(C(C)C)n3)cc2CC1` [Example 8, 2-Isopropyl-6-(3-isopropyl-2,3,4,5-tetrahydro-1H-benzo[d]azepin-7-yl)-2H-pyridazin-3-one], the melting point was 244 to 245 °C. For the same compound, the Ki at human H3 receptor lay in the range of 100 to 1000 nM. Also, the Ki in data set [1] was 100 to 1000 nM.

The compound `O=c1ccc(-c2ccc3c(c2)CCN(C2CCC2)CC3)nn1CCO` [Example 18, 6-(3-Cyclobutyl-2,3,4,5-tetrahydro-1H-benzo[d]azepin-7-yl)-2-(2-hydroxy-ethyl)-2H-pyridazin-3-one] displayed a melting point of 157 to 158 °C. For the same compound, the Ki at human H3 receptor is below 100 nM. Also, the Ki in data set [1] is below 100 nM.

`O=C1CCC(c2ccc3c(c2)CCN(C2CCC2)CC3)=NN1C1CCC1` [Example 19, 2-Cyclobutyl-6-(3-cyclobutyl-2,3,4,5-tetrahydro-1H-benzo[d]azepin-7-yl)-4,5-dihydro-2H-pyridazin-3-one]: the melting point lay in the range of 126 to 128 °C. In addition, the Ki at human H3 receptor was below 100 nM. Further, in data set [1], the Ki lay within 100 to 1000 nM.

In turn, `O=C(c1ccc(-c2ccc(=O)[nH]n2)cc1)N1CCC[C@H]1CN1CCCC1` [Example 50, 6-[4-((S)-2-Pyrrolidin-1-ylmethyl-pyrrolidine-1-carbonyl)-phenyl]-2H-pyridazin-3-one] returned a melting point of 62 to 66 °C. For the same compound, the inhibitory constant (Ki) on human H3 receptor was below 100 nM. For the same compound, the Ki in data set [1] was below 100 nM.

Consider `O=C1NN=C(c2ccc3c(c2)CCN(C2CCC2)CC3)C2CCCC12` (centres unmarked) [Example 42, 4-(3-Cyclobutyl-2,3,4,5-tetrahydro-1H-benzo[d]azepin-7-yl)-2,4a,5,6,7,7a-hexahydro-cyclopenta[d]pyridazin-1-one], for which the melting point is 198 to 201 °C. For the same compound, the inhibition constant Ki at human H3 receptor was below 100 nM. In data set [1], the Ki was below 100 nM.

On to `Cn1nc(-c2ccc(C(=O)N3CCN(C4CCCC4)CC3)cc2)ccc1=O` [Example 46, 6-[4-(4-Cyclopentyl-piperazine-1-carbonyl)-phenyl]-2-methyl-2H-pyridazin-3-one], for which the melting point lay in the range of 177 to 179 °C. On human H3 receptor, the Ki lay within 100 to 1000 nM. In data set [1], the inhibition constant Ki lay within 100 to 1000 nM.

`CCN1N=C(c2ccc3c(c2)CCN(C2CCC2)CC3)CCC1=O` [Example 12, 6-(3-Cyclobutyl-2,3,4,5-tetrahydro-1H-benzo[d]azepin-7-yl)-2-ethyl-4,5-dihydro-2H-pyridazin-3-one] came in with a melting point of 97 to 98 °C. For the same compound, the inhibition constant Ki on human H3 receptor is below 100 nM. Also, the Ki in data set [1] is below 100 nM.

`O=c1ccc(-c2ccc3c(c2)CCN(C2CCC2)CC3)nn1CC(F)(F)F` [Example 11, 6-(3-Cyclobutyl-2,3,4,5-tetrahydro-1H-benzo[d]azepin-7-yl)-2-(2,2,2-trifluoro-ethyl)-2H-pyridazin-3-one] registered a melting point of 142 to 143 °C. For the same compound, the Ki at human H3 receptor was below 100 nM. Also, the Ki in data set [1] is below 100 nM.

Turning to `CCCCn1nc(-c2ccc3c(c2)CCN(C2CCC2)CC3)ccc1=O` [Example 14, 2-Butyl-6-(3-cyclobutyl-2,3,4,5-tetrahydro-1H-benzo[d]azepin-7-yl)-2H-pyridazin-3-one], the melting point fell in the range of 88 to 89 °C. Further, the Ki on human H3 receptor was below 100 nM. Besides, the inhibition constant Ki in data set [1] is below 100 nM.

Consider `O=C1NN=C(c2ccc3c(c2)CCN(C2CCC2)CC3)C2CCCCC12` (centres unmarked) [Example 44, 4-(3-Cyclobutyl-2,3,4,5-tetrahydro-1H-benzo[d]azepin-7-yl)-4-a,5,6,7,8,8a-hexahydro-2H-phthalazin-1-one], for which the melting point was in the range of 223 to 225 °C. The Ki on human H3 receptor was below 100 nM. Moreover, in data set [1], the Ki is below 100 nM.

Turning to `CC(C)N1CCc2ccc(-c3ccc(=O)n(C)n3)cc2CC1` (as salt: HCl) [Example 22, 6-(3-Isopropyl-2,3,4,5-tetrahydro-1H-benzo[d]azepin-7-yl)-2-methyl-2H-pyridazin-3-one. HCl], the melting point lay within 254 to 256 °C.

Regarding `O=C1NN=C(c2ccc3c(c2)CCNCC3)C2CC12` (centres unmarked) (as salt: HCl) [Example 39, 5-(2,3,4,5-Tetrahydro-1H-benzo[d]azepin-7-yl)-3,4-diaza-bicyclo[4.1.0]hept-4-en-2-one], the melting point was 148 to 151 °C.

Take `C[C@@H]1CCCN1CCc1ccc2cc(-c3ccc(=O)[nH]n3)ccc2c1` (as salt: HCl) [Example 70, 6-{6-[2-((R)-2-Methyl-pyrrolidin-1-yl)-ethyl]-naphthalen-2-yl}-2H-pyridazin-3-one]: the melting point lay in the range of 295 to 298 °C.

As for `O=C1NN=C(c2ccc3c(c2)CCNCC3)C2CC12` (centres unmarked) [Example 39, 5-(2,3,4,5-Tetrahydro-1H-benzo[d]azepin-7-yl)-3,4-diaza-bicyclo[4.1.0]hept-4-en-2-one], the Ki (on human H3 receptor; in data set [1]) was 100 to 1000 nM each time.

As for `O=C(c1ccc(-c2ccc(=O)n(-c3ccc(F)cc3)n2)cc1)N1CCC[C@H]1CN1CCCC1` [Example 49, 2-(4-Fluoro-phenyl)-6-[4-((S)-2-pyrrolidin-1-ylmethyl-pyrrolidine-1-carbonyl)-phenyl]-2H-pyridazin-3-one], the Ki on human H3 receptor is below 100 nM; in data set [1], 100 to 1000 nM.

In the case of `O=C1NN=C(c2ccc3c(c2)CCN(C2CCC2)CC3)C2CC12` (centres unmarked) (as salt: HCl) [Example 40, 5-(3-Cyclobutyl-2,3,4,5-tetrahydro-1H-benzo[d]azepin-7-yl)-3,4-diaza-bicyclo[4.1.0]hept-4-en-2-one], the melting point fell in the range of 129 to 132 °C.

Take `O=c1ccc(-c2ccc(CCN3CCCCC3)cc2)nn1-c1ccccc1` [Example 65]: the Ki (on human H3 receptor; in data set [1]) was 100 to 1000 nM in each case.

Turning to `CC(C)N1N=C(c2ccc3c(c2)CCNCC3)CCC1=O` [Example 3, 2-Isopropyl-6-(2,3,4,5-tetrahydro-1H-benzo[d]azepin-7-yl)-4,5-dihydro-2H-pyridazin-3-one], the Ki (on human H3 receptor; in data set [1]) was 100 to 1000 nM in each case.

Take `O=c1c(Cl)c(Oc2ccc3c(c2)CCN(C2CCC2)CC3)cnn1-c1ccccn1` [Example 33, 4-Chloro-5-(3-cyclobutyl-2,3,4,5-tetrahydro-1H-benzo[d]azepin-7-yloxy)-2-pyridin-2-yl-2H-pyridazin-3-one]: the Ki (on human H3 receptor; in data set [1]) was below 100 nM in each case.

Take `CCN(CC)CCc1ccc(-c2ccc(=O)n(C)n2)cc1` [Example 56]: the Ki (at human H3 receptor; in data set [1]) was 100 to 1000 nM in each case.
